From ChEMBL document CHEMBL1201862, “PubChem BioAssay data set” (2004)
Activity calls are given as the source filed them.

Key:
CHO-K1 = experiment: (§1) Counterscreen for antagonists of the orexin 1 receptor (OX1R; HCRTR1): Homogeneous time resolved fluorescence (HTRF)-based cell-based dose response assay to identify antagonists of the parental CHO-K1 cell line. [Related pubchem assays (depositor defined):AID434989, AID435008, AID463079, AID485270, AID492963, AID492964, AID492965, AID493232, AID504699, AID504701]; type: functional; conditions: Cricetulus griseus
[1] = as §1, with “Fluorescence-based” for “Homogeneous time resolved fluorescence (HTRF)-based”, “cell-based high throughput” for “cell-based”, “CHO” for “CHO-K1”; type: functional
[2] = molecular target: T1, Orexin/Hypocretin receptor type 1 (Homo sapiens, UniProt O43613); experiment: Homogeneous Time Resolved Fluorescence (HTRF)-based cell-based high throughput dose response assay for antagonists of the orexin 1 receptor (OX1R; HCRTR1). [Related pubchem assays (depositor defined):AID434989, AID435008, AID463079, AID485270, AID492963, AID492964, AID492965, AID493232, AID504717, AID504718]; type: functional
T1 sequence (O43613 whole entry): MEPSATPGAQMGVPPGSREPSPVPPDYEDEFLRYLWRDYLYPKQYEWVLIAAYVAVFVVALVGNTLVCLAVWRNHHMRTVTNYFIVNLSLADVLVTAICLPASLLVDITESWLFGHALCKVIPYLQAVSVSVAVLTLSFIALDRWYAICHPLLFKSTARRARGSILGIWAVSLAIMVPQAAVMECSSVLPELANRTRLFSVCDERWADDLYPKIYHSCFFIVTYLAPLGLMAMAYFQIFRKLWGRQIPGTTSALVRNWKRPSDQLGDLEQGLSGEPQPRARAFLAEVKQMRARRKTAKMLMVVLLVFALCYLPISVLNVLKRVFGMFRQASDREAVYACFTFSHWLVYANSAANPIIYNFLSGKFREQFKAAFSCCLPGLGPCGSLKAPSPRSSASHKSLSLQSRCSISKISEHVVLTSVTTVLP

[3] = molecular target: T1, Orexin/Hypocretin receptor type 1; experiment: Fluorescence-based cell-based high throughput dose response assay for antagonists of the orexin 1 receptor (OX1R; HCRTR1). [Related pubchem assays (depositor defined):AID434989, AID435008, AID463079, AID485270, AID492963, AID492964, AID492965, AID493232, AID504717, AID504718]; type: functional
[4] = Luminescence Cell-Based Dose Retest to Confirm Inhibitors of Cancer Stem Cells. [Related pubchem assays (depositor defined):AID2717, AID2721]; type: functional; conditions: Homo sapiens
Beta-galactosidase = Beta-galactosidase (Escherichia coli, UniProt Q8VNN2); experiment: beta-galactosidase enzyme inhibitors and activators, dose response, artefact control for CCR6 antagonist project, biochemical, E. coli enzyme, set 3 (AID 504712); type: functional
Apelin receptor = Apelin receptor (Homo sapiens, UniProt P35414); experiment: APJ beta-arrestin recruitment antagonism, SAR follow-up, selectivity assay for CCR6 antagonist project, cell-based, luminescent, enzyme-fragment complementation (AID 588359); type: functional
HEK293 [5] = experiment: cells; conditions: Homo sapiens
HEK293 [6] = experiment: cells; conditions: Homo sapiens; remark: listed apart in the source
[7] = molecular target: Induced myeloid leukemia cell differentiation protein Mcl-1 (Homo sapiens, UniProt Q07820); type: functional
[8] = molecular target: T2, Replicative DNA helicase DnaB (Mycobacterium tuberculosis, UniProt P9WMR3); experiment: DnaB intein splicing inhibitors, dose response, biochemical, cell-free fluorescence (AID 449749); type: functional
T2 sequence (P9WMR3 whole entry): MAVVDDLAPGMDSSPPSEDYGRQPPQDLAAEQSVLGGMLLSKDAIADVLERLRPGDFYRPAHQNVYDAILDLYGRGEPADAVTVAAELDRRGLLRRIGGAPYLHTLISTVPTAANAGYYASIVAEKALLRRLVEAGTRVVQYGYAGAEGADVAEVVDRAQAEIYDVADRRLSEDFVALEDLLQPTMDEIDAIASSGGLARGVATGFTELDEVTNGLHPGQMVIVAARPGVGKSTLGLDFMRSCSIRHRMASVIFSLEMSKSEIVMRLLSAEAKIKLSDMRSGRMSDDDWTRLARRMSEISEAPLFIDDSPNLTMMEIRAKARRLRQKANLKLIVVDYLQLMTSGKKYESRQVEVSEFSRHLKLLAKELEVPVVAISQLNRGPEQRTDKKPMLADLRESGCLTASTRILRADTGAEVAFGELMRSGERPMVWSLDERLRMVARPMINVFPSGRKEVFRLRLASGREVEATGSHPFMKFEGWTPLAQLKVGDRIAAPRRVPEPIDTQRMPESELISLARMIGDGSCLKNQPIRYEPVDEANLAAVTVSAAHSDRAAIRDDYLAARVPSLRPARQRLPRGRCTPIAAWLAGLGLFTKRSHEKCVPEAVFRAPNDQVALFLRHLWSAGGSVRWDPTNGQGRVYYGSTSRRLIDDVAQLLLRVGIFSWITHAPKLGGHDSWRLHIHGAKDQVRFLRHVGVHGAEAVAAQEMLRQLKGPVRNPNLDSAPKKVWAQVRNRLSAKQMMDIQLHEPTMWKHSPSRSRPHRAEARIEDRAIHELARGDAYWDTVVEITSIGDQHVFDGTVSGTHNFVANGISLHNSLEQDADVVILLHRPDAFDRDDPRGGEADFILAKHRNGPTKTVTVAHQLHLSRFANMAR

Protein RecA = molecular target: T3, Protein RecA (Mycobacterium tuberculosis, UniProt P9WHJ3); experiment: Fluorescence Cell-Free Homogeneous Dose Retest to Identify Inhibitors of RecA-Intein Splicing Activity. [Related pubchem assays (depositor defined):AID2097, AID2223, AID489010, AID492950]; type: functional
T3 sequence (P9WHJ3 whole entry): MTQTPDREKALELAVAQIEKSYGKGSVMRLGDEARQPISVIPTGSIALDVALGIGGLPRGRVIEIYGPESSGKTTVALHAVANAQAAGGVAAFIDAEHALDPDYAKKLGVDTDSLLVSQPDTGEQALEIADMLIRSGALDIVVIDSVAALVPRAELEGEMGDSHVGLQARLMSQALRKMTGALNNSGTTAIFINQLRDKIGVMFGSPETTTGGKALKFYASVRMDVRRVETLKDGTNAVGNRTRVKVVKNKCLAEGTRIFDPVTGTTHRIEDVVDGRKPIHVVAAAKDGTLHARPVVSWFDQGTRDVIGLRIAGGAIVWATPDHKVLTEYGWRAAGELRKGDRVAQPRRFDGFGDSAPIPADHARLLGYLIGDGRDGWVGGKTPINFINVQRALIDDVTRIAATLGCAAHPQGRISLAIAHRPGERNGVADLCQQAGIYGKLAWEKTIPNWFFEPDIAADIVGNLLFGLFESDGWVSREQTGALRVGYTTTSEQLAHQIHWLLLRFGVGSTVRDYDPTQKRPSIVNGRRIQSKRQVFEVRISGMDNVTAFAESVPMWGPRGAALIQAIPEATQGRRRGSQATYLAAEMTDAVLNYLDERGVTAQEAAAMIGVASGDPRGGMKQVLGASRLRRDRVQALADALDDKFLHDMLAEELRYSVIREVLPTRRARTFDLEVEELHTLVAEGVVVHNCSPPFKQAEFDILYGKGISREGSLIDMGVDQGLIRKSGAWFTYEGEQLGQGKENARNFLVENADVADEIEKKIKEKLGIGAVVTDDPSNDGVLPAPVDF

Paired box protein Pax-8 = Paired box protein Pax-8 (Homo sapiens, UniProt Q06710); experiment: inhibitors of PAX8-driven TPO luciferase reporter, dose response, RMG-I cells, cherry-pick (AID 687027); type: functional, cell-based;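 note: luciferase reporter driven by Pax8 target thyroperoxidase promoter measured by SteadyGlo luminescence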
Chain of Paired box protein Pax-8 (Q06710 whole entry): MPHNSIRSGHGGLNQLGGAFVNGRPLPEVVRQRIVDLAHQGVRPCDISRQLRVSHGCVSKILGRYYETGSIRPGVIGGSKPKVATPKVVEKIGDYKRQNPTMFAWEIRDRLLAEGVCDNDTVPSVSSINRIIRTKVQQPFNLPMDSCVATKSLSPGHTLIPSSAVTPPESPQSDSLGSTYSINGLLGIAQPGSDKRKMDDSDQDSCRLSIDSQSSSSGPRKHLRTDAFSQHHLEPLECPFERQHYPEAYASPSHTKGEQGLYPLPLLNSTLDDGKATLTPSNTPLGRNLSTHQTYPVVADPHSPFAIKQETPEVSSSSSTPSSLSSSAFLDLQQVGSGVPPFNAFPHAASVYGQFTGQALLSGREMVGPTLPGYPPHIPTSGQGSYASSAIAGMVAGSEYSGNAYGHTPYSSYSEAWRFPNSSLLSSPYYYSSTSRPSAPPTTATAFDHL

Chain of Induced myeloid leukemia cell differentiation protein Mcl-1 (Q07820 whole entry): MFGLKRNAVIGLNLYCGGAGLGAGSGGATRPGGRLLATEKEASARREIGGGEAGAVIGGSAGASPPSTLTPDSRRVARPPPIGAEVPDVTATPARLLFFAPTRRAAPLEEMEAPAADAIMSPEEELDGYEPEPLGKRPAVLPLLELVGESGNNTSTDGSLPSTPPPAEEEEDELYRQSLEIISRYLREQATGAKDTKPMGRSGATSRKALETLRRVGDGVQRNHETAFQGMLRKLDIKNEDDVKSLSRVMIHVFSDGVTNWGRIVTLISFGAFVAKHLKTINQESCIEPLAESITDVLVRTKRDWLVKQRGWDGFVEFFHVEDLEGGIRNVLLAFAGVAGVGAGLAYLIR
Chain of Apelin receptor (P35414 whole entry, the tested form may be a part): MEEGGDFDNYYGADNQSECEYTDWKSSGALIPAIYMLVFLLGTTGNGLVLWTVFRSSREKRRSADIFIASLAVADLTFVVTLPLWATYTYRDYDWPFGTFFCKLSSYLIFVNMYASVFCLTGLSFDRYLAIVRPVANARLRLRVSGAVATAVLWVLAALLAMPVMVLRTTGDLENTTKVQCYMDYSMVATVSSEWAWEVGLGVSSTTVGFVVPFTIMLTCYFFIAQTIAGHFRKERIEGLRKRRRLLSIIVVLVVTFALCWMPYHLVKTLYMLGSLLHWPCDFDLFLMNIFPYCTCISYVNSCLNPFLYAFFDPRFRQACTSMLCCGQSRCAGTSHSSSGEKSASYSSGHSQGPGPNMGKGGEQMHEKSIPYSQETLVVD
Chain of Beta-galactosidase (Q8VNN2 whole entry, the tested form may be a part): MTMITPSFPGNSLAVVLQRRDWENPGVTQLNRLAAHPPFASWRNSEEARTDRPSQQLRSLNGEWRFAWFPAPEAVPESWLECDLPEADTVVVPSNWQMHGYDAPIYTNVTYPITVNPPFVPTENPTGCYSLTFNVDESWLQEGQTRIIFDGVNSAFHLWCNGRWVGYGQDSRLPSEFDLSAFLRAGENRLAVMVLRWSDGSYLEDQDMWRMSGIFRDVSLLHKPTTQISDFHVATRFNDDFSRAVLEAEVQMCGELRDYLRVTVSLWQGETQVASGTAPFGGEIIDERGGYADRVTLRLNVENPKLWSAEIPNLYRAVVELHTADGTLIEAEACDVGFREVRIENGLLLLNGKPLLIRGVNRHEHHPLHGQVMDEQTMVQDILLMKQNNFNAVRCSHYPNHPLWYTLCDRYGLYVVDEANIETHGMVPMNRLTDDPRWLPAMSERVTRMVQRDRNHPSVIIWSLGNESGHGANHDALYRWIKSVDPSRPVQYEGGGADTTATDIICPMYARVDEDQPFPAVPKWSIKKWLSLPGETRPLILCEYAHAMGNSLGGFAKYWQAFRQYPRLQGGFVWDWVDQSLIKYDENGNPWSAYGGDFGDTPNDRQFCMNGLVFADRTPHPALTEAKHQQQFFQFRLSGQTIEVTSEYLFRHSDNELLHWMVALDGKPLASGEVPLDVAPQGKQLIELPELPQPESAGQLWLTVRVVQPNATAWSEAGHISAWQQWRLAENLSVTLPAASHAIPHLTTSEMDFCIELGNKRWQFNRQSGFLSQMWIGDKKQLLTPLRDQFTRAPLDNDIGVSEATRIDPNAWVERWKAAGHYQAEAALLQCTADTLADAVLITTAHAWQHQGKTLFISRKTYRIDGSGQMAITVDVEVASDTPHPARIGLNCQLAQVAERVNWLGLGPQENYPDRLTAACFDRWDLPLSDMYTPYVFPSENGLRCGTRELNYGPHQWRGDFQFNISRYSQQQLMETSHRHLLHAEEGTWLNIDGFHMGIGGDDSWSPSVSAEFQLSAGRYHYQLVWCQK

**Q.** With `Cc1ccc(O)c(NC(=O)c2cc(-c3ccccc3Cl)on2)c1` as the molecule, how does the IC50 (CHO-K1) read?
**A.** > 66.3 µM (inactive)

**Q.** And the IC50 [1]?
**A.** > 49.8 µM (inactive)

**Q.** What about the IC50 [2] of the same molecule?
**A.** 7.23 µM (active)

**Q.** What about the IC50 [3] of the same molecule?
**A.** > 49.8 µM (inactive)

**Q.** Which results are given for `Cc1sc2nc(SCCN(C)C)n(-c3ccccc3)c(=O)c2c1-c1ccc(F)cc1`?
**A.** AC50 [4]: 7.17 µM (active); IC50 (Beta-galactosidase): > 66.6 µM (inactive); IC50 (Apelin receptor): 30.9 µM (inactive)

**Q.** Which results are given for `CCCCC(=O)NC(=S)Nc1cccc(Cl)c1N1CCCCC1`?
**A.** EC50 (HEK293 [5]): > 59.7 µM (inactive); EC50 (HEK293 [6]): > 59.7 µM (inactive)

**Q.** Which IC50 [7] does the source give for `CCN(CC)S(=O)(=O)c1cc(NC(=O)Cn2ncc(Cl)c(Cl)c2=O)ccc1C` here?
**A.** 4.21 µM (active)

**Q.** What about the AC50 [8] of the same molecule?
**A.** 11.8 µM (active)

**Q.** What about the EC50 (Protein RecA) of the same molecule?
**A.** 14.5 µM (active)

**Q.** And the AC50 (Paired box protein Pax-8)?
**A.** 4.84 µM (active)

**Q.** What about the EC50 (HEK293 [5]) of the same molecule?
**A.** > 59.6 µM (inactive)

**Q.** And the EC50 (HEK293 [6])?
**A.** > 59.6 µM (inactive)
